23 molecules from PubChem BioAssay (NCI) can be followed below.

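Five concentrations, 48 hours, 96-well plates. Here, GI50 denotes the concentration required for 50% inhibition of growth. At the TGI there is no net growth.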

Test systems include MCF7 breast; SF-539 CNS; UACC-62 melanoma; CAKI-1 renal; SNB-75 CNS; MDA-MB-435; NCI-H23 lung; M19-MEL melanoma; KM20L2 colon; P388 leukemia; XF 498 CNS; UACC-257 melanoma.
Common to all, as to test: NCI tumour cell line growth inhibition, 48 h

With `COC(=O)Nc1nc2ccc(NC(=O)c3cccs3)cc2[nH]1`, the TGI in the assay with MCF7 breast was over 100 µM; in the assay on SF-539 CNS it was 60.2 µM; with UACC-62 melanoma, over 100 µM; with CAKI-1 renal, over 100 µM; in the assay on SNB-75 CNS it was 65 µM; with MDA-MB-435 it was 39.4 µM. This molecule also gave a TGI in the assay with NCI-H23 lung of over 100 µM.

Regarding `O=C1OC2CC=CC1C2` (stereo not given), the TGI in the assay with M19-MEL melanoma, in the assay on KM20L2 colon, with P388 leukemia, in the assay with MCF7 breast, with SF-539 CNS and in the assay on XF 498 CNS was over 100 µM throughout. Besides, the TGI with UACC-62 melanoma, in the assay with SNB-75 CNS, with NCI-H23 lung and with UACC-257 melanoma was over 100 µM throughout.

With `C=C1C(=O)OC2CC1CCC1(C)OC1CCC(C)=CCCC2(C)O` (stereo not given), the TGI in the assay on M19-MEL melanoma stood at 11.8 µM; in the assay on KM20L2 colon, 8.58 µM; with P388 leukemia it was 3.06 µM; in the assay on MCF7 breast it was 9.64 µM; in the assay with SF-539 CNS, 10.5 µM; in the assay on XF 498 CNS it was 8.47 µM. Besides, the TGI with UACC-62 melanoma turned out to be 10 µM; in the assay with CAKI-1 renal it was 7.7 µM; in the assay on SNB-75 CNS, 19.5 µM; in the assay on NCI-H23 lung, 7.25 µM; in the assay on UACC-257 melanoma it was 13.9 µM.

Turning to `c1ccc(C[N+]23CN4CN(CN(C4)C2)C3)cc1`, the TGI with MCF7 breast was 94.3 µM; with SF-539 CNS, 51.9 µM; with UACC-62 melanoma it was 32.1 µM; with CAKI-1 renal it was over 100 µM; in the assay with SNB-75 CNS, over 100 µM; in the assay with MDA-MB-435, 45.5 µM. For the same molecule, the TGI in the assay with NCI-H23 lung was 36.6 µM; in the assay on UACC-257 melanoma it was over 100 µM.

Consider `O=C1CCCC2C3CC(CN12)C1CCCCN1C3` (stereo not given), for which the TGI with MCF7 breast, with SF-539 CNS, with UACC-62 melanoma, with CAKI-1 renal, in the assay with MDA-MB-435 and in the assay with NCI-H23 lung was over 100 µM in each case. The same molecule registered a TGI in the assay on UACC-257 melanoma of over 100 µM.

Consider `CN1CC(CNC(=O)OCc2ccccc2)CC2c3cccc4c3c(cn4C)CC21` (stereo not given), for which the GI50 is 1.77 µM with MCF7 breast; 1.64 µM in the assay with SF-539 CNS; 1.66 µM in the assay on UACC-62 melanoma; 1.68 µM in the assay on CAKI-1 renal; 1.9 µM in the assay on SNB-75 CNS; 1.81 µM in the assay on MDA-MB-435. In addition, the GI50 is 2.61 µM with NCI-H23 lung and 1.42 µM in the assay with UACC-257 melanoma. The TGI in the assay on MCF7 breast is 3.29 µM; in the assay on SF-539 CNS it was 3.24 µM; in the assay with UACC-62 melanoma, 3.17 µM; in the assay on CAKI-1 renal it was 3.65 µM; in the assay on SNB-75 CNS, 4.68 µM; with MDA-MB-435, 3.53 µM. Moreover, the figures for the TGI in the assay on NCI-H23 lung and in the assay on UACC-257 melanoma were 10.6 µM and 2.81 µM, respectively.

Consider `O=C1OCc2cc3cc4c(cc3c(-c3ccc5c(c3)OCO5)c21)OCO4` (tested in a mixture with another compound), for which the TGI was over 100 µM in the assay with MCF7 breast; 68 µM with UACC-62 melanoma; 86.7 µM with CAKI-1 renal; over 100 µM with MDA-MB-435; over 100 µM in the assay on NCI-H23 lung; over 100 µM in the assay with UACC-257 melanoma.

As for `O=C(COc1ccc(Cl)c(Cl)c1)N(Cc1ccccc1)Cc1ccc[n+](Cc2ccc(Cl)cc2S(=O)(=O)F)c1`, the TGI in the assay on MCF7 breast, in the assay with SF-539 CNS, with UACC-62 melanoma, with CAKI-1 renal, with SNB-75 CNS and with MDA-MB-435 was over 100 µM each time. The TGI in the assay on NCI-H23 lung and with UACC-257 melanoma was over 100 µM throughout.

`COc1ccc(NC(=S)N/N=C(\C)c2nc3ncccc3[nH]2)cc1`: the TGI is 21.6 µM with MCF7 breast; 13.7 µM in the assay on SF-539 CNS; 73.2 µM in the assay on UACC-62 melanoma; over 100 µM in the assay with CAKI-1 renal; 70.6 µM in the assay on SNB-75 CNS; over 100 µM in the assay with MDA-MB-435. In addition, the TGI in the assay on NCI-H23 lung and with UACC-257 melanoma was over 100 µM each time.

For the molecule `Cl/C(=C\C=Nc1ccc(I)cc1)c1ccc2ccccc2c1`, the TGI is over 87.5 µM with MCF7 breast; 44.4 µM in the assay on SF-539 CNS; 34.3 µM with UACC-62 melanoma; 29 µM in the assay on CAKI-1 renal; over 79.9 µM with SNB-75 CNS; 28 µM with MDA-MB-435. The figures for the TGI in the assay on NCI-H23 lung and in the assay with UACC-257 melanoma were 31 µM and 33.8 µM, respectively.

Take `CC(=O)NNC(=O)C1CCCCN1` (stereo not given): the TGI in the assay with MCF7 breast, in the assay on SF-539 CNS, in the assay with CAKI-1 renal, with MDA-MB-435, in the assay on NCI-H23 lung and in the assay with UACC-257 melanoma was over 100 µM in each case.

Regarding `CCCC(=O)O.CCCC(=O)O.CCCC(=O)O.CCCC(=O)O.[Rh].[Rh]`, the GI50 with UACC-62 melanoma was 0.0343 µM; in the assay on CAKI-1 renal, 0.035 µM; with SNB-75 CNS it was 0.423 µM. Besides, the TGI with UACC-62 melanoma is 0.142 µM; in the assay on CAKI-1 renal it was 0.106 µM; in the assay with SNB-75 CNS, 2.62 µM.

For `Cc1cc(C)nc(SCCc2cccc[n+]2C)n1`, the TGI with MCF7 breast, with UACC-62 melanoma, in the assay with CAKI-1 renal, with SNB-75 CNS, in the assay with MDA-MB-435 and in the assay on NCI-H23 lung was over 100 µM throughout. In addition, the TGI in the assay with UACC-257 melanoma was over 100 µM.

On to `Br/C(=N\Nc1nn[nH]n1)c1ccncc1`, for which the TGI with MCF7 breast, with SF-539 CNS, in the assay with UACC-62 melanoma, with CAKI-1 renal, in the assay with SNB-75 CNS and in the assay on MDA-MB-435 was over 100 µM throughout. Also, the TGI with NCI-H23 lung and in the assay on UACC-257 melanoma was over 100 µM in each case.

For the molecule `CC[C@]12C=CCN3CC[C@@]4(c5cc(Br)c(OC)cc5N(C)[C@H]4[C@@](O)(C(=O)N[C@@H](Cc4ccc(O)cc4)C(=O)OC)[C@@H]1O)[C@@H]32`, the TGI with MCF7 breast was over 100 µM; in the assay with SF-539 CNS it was 36.6 µM; with UACC-62 melanoma, 33.9 µM; in the assay on CAKI-1 renal it was 77.9 µM; with MDA-MB-435, 35.8 µM; in the assay on NCI-H23 lung, over 100 µM. Besides, the TGI with UACC-257 melanoma came out at 33.9 µM.

In the case of `COc1c(OC/C=C(\C)CCC=C(C)C)ccc2ccc(=O)oc12`, the TGI with MCF7 breast, with SF-539 CNS, with UACC-62 melanoma, in the assay with CAKI-1 renal, with SNB-75 CNS and with MDA-MB-435 was over 100 µM throughout. Besides, the TGI with NCI-H23 lung and with UACC-257 melanoma was over 100 µM each time.

Take `CC(C)(C)OC(=O)NC1CCC(C(C)(C)C)CC1` (stereo not given): the TGI was over 86.7 µM with M19-MEL melanoma; over 100 µM with KM20L2 colon; 48.5 µM in the assay on P388 leukemia; over 100 µM in the assay on MCF7 breast; over 100 µM in the assay with SF-539 CNS; over 96.5 µM in the assay with XF 498 CNS. Further, the TGI with UACC-62 melanoma is over 100 µM; in the assay with SNB-75 CNS it was over 100 µM; with NCI-H23 lung it was over 100 µM; in the assay on UACC-257 melanoma it was over 61.8 µM.

On to `O=C(Oc1ccc(Cl)cc1[N+](=O)[O-])c1ccccc1`, for which the TGI in the assay on M19-MEL melanoma, in the assay with KM20L2 colon, in the assay on SF-539 CNS, in the assay on XF 498 CNS, with UACC-62 melanoma and in the assay with SNB-75 CNS was over 100 µM throughout. The TGI in the assay with NCI-H23 lung and in the assay with UACC-257 melanoma was over 100 µM throughout.

In the case of `COc1ccc(OC)c(CC(C)N)c1` (stereo not given), the TGI with M19-MEL melanoma, in the assay on KM20L2 colon, in the assay with SF-539 CNS, with XF 498 CNS, with UACC-62 melanoma and in the assay with CAKI-1 renal was over 100 µM in each case. The TGI with SNB-75 CNS, in the assay on NCI-H23 lung and in the assay on UACC-257 melanoma was over 100 µM each time.

For `C=CCSSCC=C`, the TGI in the assay with MCF7 breast was over 100 µM; in the assay on SF-539 CNS it was over 71.9 µM; with UACC-62 melanoma it was over 100 µM; in the assay with CAKI-1 renal it was over 100 µM; in the assay on SNB-75 CNS, over 100 µM; with MDA-MB-435 it was over 84.7 µM. For the same molecule, the results for the TGI with NCI-H23 lung and with UACC-257 melanoma were over 95.9 µM and over 100 µM, respectively.

As for `Cn1c2c3ccc(Cl)cc3nc-2c(Cl)c2ccccc21`, the TGI in the assay on MCF7 breast was over 100 µM; with SF-539 CNS, 49.2 µM; in the assay on UACC-62 melanoma, 50.8 µM; in the assay on CAKI-1 renal, 32.1 µM; with SNB-75 CNS, 55.1 µM; with MDA-MB-435, 38.2 µM. In addition, the TGI was 36.1 µM with NCI-H23 lung and 37.4 µM with UACC-257 melanoma.

`SC1CCCN(Cc2ccccc2)C1` (stereo not given): the TGI was 39.4 µM in the assay on MCF7 breast; over 100 µM in the assay on SF-539 CNS; over 100 µM in the assay on UACC-62 melanoma; over 100 µM in the assay on CAKI-1 renal; over 100 µM in the assay with SNB-75 CNS; over 100 µM in the assay with MDA-MB-435. Also, the TGI in the assay with NCI-H23 lung was 81.5 µM; with UACC-257 melanoma, over 100 µM.

For `O=C(/C=C/c1ccccc1)N1CCCCC1`, the TGI in the assay on MCF7 breast is over 100 µM; in the assay on SF-539 CNS it was over 100 µM; in the assay on UACC-62 melanoma it was over 100 µM; in the assay on CAKI-1 renal, over 100 µM; in the assay with SNB-75 CNS it was 89.2 µM; with MDA-MB-435 it was over 100 µM. Also, the TGI with NCI-H23 lung and with UACC-257 melanoma was over 100 µM each time.
